# Reference: patent US12281080B2, “Quinoline-based compounds and methods of inhibiting CDK8/19” (University of South Carolina, priority 2018, dated 2025)
# How the values were obtained:
# LCK = LCK (Homo sapiens (Human), UniProt P06239); experiment: KINOMEscan scanMAX; assay type: binding; conditions: 2000 nM; read-out: Percent Control
# [1] = target: ABL1(E255K)-phosphorylated (Homo sapiens (Human), UniProt P00519, E255K); experiment: KINOMEscan scanMAX; assay type: binding; conditions: 2000 nM; read-out: Percent Control
# CDK11 (CDK19) = CDK11 (CDK19) (Homo sapiens (Human), UniProt Q9BWU1); experiment: KINOMEscan scanMAX; assay type: binding; conditions: 2000 nM; read-out: Percent Control
# STK39 = STK39 (Homo sapiens (Human), UniProt Q9UEW8); experiment: KINOMEscan scanMAX; assay type: binding; conditions: 2000 nM; read-out: Percent Control
# CSF1R = CSF1R (Homo sapiens (Human), UniProt P07333); experiment: KINOMEscan scanMAX; assay type: binding; conditions: 2000 nM; read-out: Percent Control
# CDK19 = CDK19 (Homo sapiens (Human), UniProt Q9BWU1); experiment: DiscoverX Kd assay
# EPHB4 = EPHB4 (Homo sapiens (Human), UniProt P54760); experiment: KINOMEscan scanMAX; assay type: binding; conditions: 2000 nM; read-out: Percent Control
# EGFR(L858R) = EGFR(L858R) (Homo sapiens (Human), UniProt P00533, L858R); experiment: KINOMEscan scanMAX; assay type: binding; conditions: 2000 nM; read-out: Percent Control
# ACVRL1 = ACVRL1 (Homo sapiens (Human), UniProt P37023); experiment: KINOMEscan scanMAX; assay type: binding; conditions: 2000 nM; read-out: Percent Control
# PIK3CA(M1043I) = PIK3CA(M1043I) (Homo sapiens (Human), UniProt P42336, M1043I); experiment: KINOMEscan scanMAX; assay type: binding; conditions: 2000 nM; read-out: Percent Control
# CAMK1B (PNCK) = CAMK1B (PNCK) (Homo sapiens (Human), UniProt Q6P2M8); experiment: KINOMEscan scanMAX; assay type: binding; conditions: 2000 nM; read-out: Percent Control
# MLK2 (MAP3K10) = MLK2 (MAP3K10) (Homo sapiens (Human), UniProt Q02779); experiment: KINOMEscan scanMAX; assay type: binding; conditions: 2000 nM; read-out: Percent Control
# Sequence of MLK2 (MAP3K10) (Q02779 whole entry): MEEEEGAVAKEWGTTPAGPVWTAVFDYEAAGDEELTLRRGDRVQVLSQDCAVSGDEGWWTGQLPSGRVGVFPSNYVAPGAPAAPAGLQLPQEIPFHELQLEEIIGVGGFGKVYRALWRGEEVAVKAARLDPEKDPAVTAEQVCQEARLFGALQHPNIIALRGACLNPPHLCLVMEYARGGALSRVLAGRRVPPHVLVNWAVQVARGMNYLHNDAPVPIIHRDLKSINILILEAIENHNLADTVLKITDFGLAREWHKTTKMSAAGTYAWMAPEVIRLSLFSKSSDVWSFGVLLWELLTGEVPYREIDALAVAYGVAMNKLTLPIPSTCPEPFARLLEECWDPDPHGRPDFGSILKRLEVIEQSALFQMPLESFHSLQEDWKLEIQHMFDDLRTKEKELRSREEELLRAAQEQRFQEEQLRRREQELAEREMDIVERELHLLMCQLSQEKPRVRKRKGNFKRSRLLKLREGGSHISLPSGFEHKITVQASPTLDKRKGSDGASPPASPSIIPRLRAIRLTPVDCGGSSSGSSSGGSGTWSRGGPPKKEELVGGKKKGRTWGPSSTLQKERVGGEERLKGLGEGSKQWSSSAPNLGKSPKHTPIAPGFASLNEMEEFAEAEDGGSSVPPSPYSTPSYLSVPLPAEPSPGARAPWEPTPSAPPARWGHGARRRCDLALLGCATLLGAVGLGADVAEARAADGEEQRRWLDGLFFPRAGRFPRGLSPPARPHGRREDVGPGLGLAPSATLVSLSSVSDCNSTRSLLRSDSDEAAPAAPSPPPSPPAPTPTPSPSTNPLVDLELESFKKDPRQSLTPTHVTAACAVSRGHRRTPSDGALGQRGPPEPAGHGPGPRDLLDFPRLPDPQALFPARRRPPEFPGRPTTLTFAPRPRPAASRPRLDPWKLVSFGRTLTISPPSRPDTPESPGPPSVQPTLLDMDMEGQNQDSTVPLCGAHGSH
# [2] = target: TYK2(JH1domain-catalytic) (Homo sapiens (Human), UniProt P29597); experiment: KINOMEscan scanMAX; assay type: binding; conditions: 2000 nM; read-out: Percent Control
# Sequence of TYK2(JH1domain-catalytic) (P29597 897-1176): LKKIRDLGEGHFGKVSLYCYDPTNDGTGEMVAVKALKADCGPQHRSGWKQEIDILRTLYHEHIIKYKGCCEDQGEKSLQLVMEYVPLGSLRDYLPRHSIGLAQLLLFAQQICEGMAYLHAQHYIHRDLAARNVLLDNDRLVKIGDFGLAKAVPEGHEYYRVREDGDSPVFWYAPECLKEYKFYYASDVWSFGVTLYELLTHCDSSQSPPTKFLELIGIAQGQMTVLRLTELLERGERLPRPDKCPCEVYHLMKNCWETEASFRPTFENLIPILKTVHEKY
# JNK3 (MAPK10) = JNK3 (MAPK10) (Homo sapiens (Human), UniProt P53779); experiment: KINOMEscan scanMAX; assay type: binding; conditions: 2000 nM; read-out: Percent Control
# Sequence of JNK3 (MAPK10) (P53779 whole entry): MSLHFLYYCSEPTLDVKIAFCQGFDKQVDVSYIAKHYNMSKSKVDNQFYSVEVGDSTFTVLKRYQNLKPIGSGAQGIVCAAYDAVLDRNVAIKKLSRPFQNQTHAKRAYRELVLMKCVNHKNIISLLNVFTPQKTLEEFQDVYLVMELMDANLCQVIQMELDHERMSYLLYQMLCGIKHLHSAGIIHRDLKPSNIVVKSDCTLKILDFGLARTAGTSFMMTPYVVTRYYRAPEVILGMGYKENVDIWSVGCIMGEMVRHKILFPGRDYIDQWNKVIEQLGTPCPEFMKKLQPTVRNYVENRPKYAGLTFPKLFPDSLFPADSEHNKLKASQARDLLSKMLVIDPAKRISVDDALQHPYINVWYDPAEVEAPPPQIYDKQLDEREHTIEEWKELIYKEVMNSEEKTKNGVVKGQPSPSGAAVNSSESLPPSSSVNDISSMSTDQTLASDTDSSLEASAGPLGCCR
# ADCK4 = ADCK4 (Homo sapiens (Human), UniProt Q96D53); experiment: KINOMEscan scanMAX; assay type: binding; conditions: 2000 nM; read-out: Percent Control
# PRKG2 = PRKG2 (Homo sapiens (Human), UniProt Q13237); experiment: KINOMEscan scanMAX; assay type: binding; conditions: 2000 nM; read-out: Percent Control
# BMX = BMX (Homo sapiens (Human), UniProt P51813); experiment: KINOMEscan scanMAX; assay type: binding; conditions: 2000 nM; read-out: Percent Control
# IRAK4 = IRAK4 (Homo sapiens (Human), UniProt Q9NWZ3); experiment: KINOMEscan scanMAX; assay type: binding; conditions: 2000 nM; read-out: Percent Control
# AURKA = AURKA (Homo sapiens (Human), UniProt O14965); experiment: KINOMEscan scanMAX; assay type: binding; conditions: 2000 nM; read-out: Percent Control
# Sequence of AURKA (O14965 whole entry): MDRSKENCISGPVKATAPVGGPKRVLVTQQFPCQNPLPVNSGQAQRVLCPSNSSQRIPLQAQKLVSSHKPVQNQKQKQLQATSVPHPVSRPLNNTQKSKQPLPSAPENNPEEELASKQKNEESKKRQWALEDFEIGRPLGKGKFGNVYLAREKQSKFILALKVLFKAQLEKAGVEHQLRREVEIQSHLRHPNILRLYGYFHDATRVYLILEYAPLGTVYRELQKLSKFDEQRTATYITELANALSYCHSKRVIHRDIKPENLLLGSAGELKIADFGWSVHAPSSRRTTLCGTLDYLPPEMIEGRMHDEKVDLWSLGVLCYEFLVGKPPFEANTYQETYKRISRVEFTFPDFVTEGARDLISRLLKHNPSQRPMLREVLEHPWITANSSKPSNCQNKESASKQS
# BTK = BTK (Homo sapiens (Human), UniProt Q06187); experiment: KINOMEscan scanMAX; assay type: binding; conditions: 2000 nM; read-out: Percent Control
# FGFR3 = FGFR3 (Homo sapiens (Human), UniProt P22607); experiment: KINOMEscan scanMAX; assay type: binding; conditions: 2000 nM; read-out: Percent Control
# ACVR2A = ACVR2A (Homo sapiens (Human), UniProt P27037); experiment: KINOMEscan scanMAX; assay type: binding; conditions: 2000 nM; read-out: Percent Control
# SLK = SLK (Homo sapiens (Human), UniProt Q9H2G2); experiment: KINOMEscan scanMAX; assay type: binding; conditions: 2000 nM; read-out: Percent Control
# Sequence of SLK (Q9H2G2 whole entry): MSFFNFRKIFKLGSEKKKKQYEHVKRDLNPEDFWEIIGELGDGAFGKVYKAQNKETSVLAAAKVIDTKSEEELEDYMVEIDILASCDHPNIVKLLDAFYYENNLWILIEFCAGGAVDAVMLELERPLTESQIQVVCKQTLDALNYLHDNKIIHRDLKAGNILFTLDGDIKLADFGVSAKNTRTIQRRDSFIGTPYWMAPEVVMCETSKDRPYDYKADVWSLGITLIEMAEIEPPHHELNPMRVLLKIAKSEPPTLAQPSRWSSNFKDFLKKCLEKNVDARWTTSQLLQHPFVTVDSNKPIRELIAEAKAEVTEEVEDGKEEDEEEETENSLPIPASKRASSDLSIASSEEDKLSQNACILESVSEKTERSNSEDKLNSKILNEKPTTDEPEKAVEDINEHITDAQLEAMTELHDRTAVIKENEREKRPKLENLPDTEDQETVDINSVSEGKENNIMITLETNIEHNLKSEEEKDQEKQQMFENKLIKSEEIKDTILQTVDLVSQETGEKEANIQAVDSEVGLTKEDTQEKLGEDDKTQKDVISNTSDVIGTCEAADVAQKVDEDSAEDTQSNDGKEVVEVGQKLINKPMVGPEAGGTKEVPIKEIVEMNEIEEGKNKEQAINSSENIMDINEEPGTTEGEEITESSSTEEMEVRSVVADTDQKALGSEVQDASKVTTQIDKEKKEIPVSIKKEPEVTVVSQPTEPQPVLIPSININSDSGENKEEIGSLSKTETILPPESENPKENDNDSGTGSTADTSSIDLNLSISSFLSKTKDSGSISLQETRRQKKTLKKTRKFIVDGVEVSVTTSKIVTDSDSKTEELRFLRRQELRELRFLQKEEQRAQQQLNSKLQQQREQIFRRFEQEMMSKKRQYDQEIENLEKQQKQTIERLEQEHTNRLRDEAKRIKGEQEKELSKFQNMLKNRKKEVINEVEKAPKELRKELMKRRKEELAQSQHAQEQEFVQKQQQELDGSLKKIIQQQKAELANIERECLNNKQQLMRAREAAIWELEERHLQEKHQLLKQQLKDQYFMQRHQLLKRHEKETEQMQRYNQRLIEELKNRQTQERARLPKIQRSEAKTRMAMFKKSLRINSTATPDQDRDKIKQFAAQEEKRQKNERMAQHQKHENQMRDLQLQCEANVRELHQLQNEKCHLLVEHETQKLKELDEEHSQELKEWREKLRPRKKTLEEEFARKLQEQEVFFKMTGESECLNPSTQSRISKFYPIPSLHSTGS
# LIMK1 = LIMK1 (Homo sapiens (Human), UniProt P53667); experiment: KINOMEscan scanMAX; assay type: binding; conditions: 2000 nM; read-out: Percent Control
# PRKD1 = PRKD1 (Homo sapiens (Human), UniProt Q15139); experiment: KINOMEscan scanMAX; assay type: binding; conditions: 2000 nM; read-out: Percent Control
# EGFR(S752-1759del) = EGFR(S752-1759del) (Homo sapiens (Human), UniProt P00533, DEL752-759); experiment: KINOMEscan scanMAX; assay type: binding; conditions: 2000 nM; read-out: Percent Control
# MTOR = MTOR (Homo sapiens (Human), UniProt P42345); experiment: KINOMEscan scanMAX; assay type: binding; conditions: 2000 nM; read-out: Percent Control
# MYLK4 = MYLK4 (Homo sapiens (Human), UniProt Q86YV6); experiment: KINOMEscan scanMAX; assay type: binding; conditions: 2000 nM; read-out: Percent Control
# LNCaP-C4-2 cells = experiment: PSA production (ELISA) in LNCaP-C4-2 cells; assay type: cell-based, human; conditions: 4 days treatment, conditioned media
# Description: Prostate cancer LNCaP-C4-2 cells were treated with different concentrations of the compounds for 4 days and the conditioned media were collected for quantification of prostate specific antigen (PSA) with an ELISA kit.
# CDK5 = CDK5 (Homo sapiens (Human), UniProt Q00535); experiment: KINOMEscan scanMAX; assay type: binding; conditions: 2000 nM; read-out: Percent Control
# RIOK1 = RIOK1 (Homo sapiens (Human), UniProt Q9BRS2); experiment: KINOMEscan scanMAX; assay type: binding; conditions: 2000 nM; read-out: Percent Control
# NEK11 = NEK11 (Homo sapiens (Human), UniProt Q8NG66); experiment: KINOMEscan scanMAX; assay type: binding; conditions: 2000 nM; read-out: Percent Control
# [3] = target: TYK2(JH2domain-pseudokinase) (Homo sapiens (Human), UniProt P29597); experiment: KINOMEscan scanMAX; assay type: binding; conditions: 2000 nM; read-out: Percent Control
# NEK5 = NEK5 (Homo sapiens (Human), UniProt Q6P3R8); experiment: KINOMEscan scanMAX; assay type: binding; conditions: 2000 nM; read-out: Percent Control
# KIT(A829P) = KIT(A829P) (Homo sapiens (Human), UniProt P10721, A829P); experiment: KINOMEscan scanMAX; assay type: binding; conditions: 2000 nM; read-out: Percent Control
# STK16 = STK16 (Homo sapiens (Human), UniProt O75716); experiment: KINOMEscan scanMAX; assay type: binding; conditions: 2000 nM; read-out: Percent Control
# PLK4 = PLK4 (Homo sapiens (Human), UniProt O00444); experiment: KINOMEscan scanMAX; assay type: binding; conditions: 2000 nM; read-out: Percent Control
# Sequence of PLK4 (O00444 whole entry): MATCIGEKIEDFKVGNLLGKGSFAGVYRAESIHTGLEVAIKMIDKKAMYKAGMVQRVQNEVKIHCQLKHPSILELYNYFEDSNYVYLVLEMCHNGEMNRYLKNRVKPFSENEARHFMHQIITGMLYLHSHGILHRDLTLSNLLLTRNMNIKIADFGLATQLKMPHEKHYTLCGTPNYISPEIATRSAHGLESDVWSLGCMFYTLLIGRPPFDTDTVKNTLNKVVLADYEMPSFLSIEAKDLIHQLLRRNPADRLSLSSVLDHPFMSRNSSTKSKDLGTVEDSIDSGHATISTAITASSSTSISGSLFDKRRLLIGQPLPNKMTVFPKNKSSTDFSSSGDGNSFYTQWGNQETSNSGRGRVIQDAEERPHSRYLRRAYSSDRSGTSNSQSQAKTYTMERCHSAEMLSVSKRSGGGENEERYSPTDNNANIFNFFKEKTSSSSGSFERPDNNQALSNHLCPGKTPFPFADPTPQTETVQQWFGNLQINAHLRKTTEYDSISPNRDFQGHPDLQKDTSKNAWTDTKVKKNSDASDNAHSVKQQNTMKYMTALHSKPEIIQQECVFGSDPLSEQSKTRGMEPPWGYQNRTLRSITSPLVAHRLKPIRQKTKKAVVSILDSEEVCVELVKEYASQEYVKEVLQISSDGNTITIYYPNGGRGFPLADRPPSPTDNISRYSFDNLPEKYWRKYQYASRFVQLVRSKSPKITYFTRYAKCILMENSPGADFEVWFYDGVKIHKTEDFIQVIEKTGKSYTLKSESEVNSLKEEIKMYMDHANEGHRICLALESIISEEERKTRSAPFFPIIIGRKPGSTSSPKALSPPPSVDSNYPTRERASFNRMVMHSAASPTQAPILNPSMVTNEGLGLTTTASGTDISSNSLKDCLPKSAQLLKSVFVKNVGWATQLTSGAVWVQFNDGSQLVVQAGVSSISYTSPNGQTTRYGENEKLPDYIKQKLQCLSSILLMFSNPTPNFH
# PKN2 = PKN2 (Homo sapiens (Human), UniProt Q16513); experiment: KINOMEscan scanMAX; assay type: binding; conditions: 2000 nM; read-out: Percent Control
# [4] = Metabolic stability in human hepatocytes; assay type: in vitro ADME; conditions: 2 μM, 37° C.
# Sequence of LCK (P06239 whole entry): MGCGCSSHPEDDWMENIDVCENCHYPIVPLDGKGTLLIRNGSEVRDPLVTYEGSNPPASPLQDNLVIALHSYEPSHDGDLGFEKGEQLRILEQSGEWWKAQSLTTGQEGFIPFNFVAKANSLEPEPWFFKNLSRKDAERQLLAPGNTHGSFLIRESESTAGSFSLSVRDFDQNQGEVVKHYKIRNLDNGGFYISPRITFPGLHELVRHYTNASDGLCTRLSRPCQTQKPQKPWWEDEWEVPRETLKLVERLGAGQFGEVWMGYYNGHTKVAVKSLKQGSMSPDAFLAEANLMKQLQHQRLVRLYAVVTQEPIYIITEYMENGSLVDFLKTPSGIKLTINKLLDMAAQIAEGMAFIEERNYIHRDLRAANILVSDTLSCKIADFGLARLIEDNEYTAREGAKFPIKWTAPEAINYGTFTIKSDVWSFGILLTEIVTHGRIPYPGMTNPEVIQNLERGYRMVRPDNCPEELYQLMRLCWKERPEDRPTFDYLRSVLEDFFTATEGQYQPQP
structure (smiles),measurement,setting,value
"CN1CCN(C(=O)c2ccc3cc(CCNc4ccnc5ccc(C#N)cc45)ccc3c2)CC1 [compound 6148, 4-((2-(6-(4-methylpiperazine-1-carbonyl)naphthalen-2-yl)ethyl)amino)quinoline-6-carbonitrile]",remaining binding at 2 µM,LCK,92%
same,remaining binding at 2 µM,[1],93%
same,remaining binding at 2 µM,CDK11 (CDK19),13%
same,remaining binding at 2 µM,STK39,44%
same,remaining binding at 2 µM,CSF1R,85%
same,Kd,CDK19,44 nM
same,remaining binding at 2 µM,EPHB4,89%
same,remaining binding at 2 µM,EGFR(L858R),93%
same,remaining binding at 2 µM,ACVRL1,93%
same,remaining binding at 2 µM,PIK3CA(M1043I),80%
same,remaining binding at 2 µM,CAMK1B (PNCK),92%
same,remaining binding at 2 µM,MLK2 (MAP3K10),79%
same,remaining binding at 2 µM,[2],62%
same,remaining binding at 2 µM,JNK3 (MAPK10),61%
same,remaining binding at 2 µM,ADCK4,97%
same,remaining binding at 2 µM,PRKG2,84%
same,remaining binding at 2 µM,BMX,100%
same,remaining binding at 2 µM,IRAK4,67%
same,remaining binding at 2 µM,AURKA,88%
same,remaining binding at 2 µM,BTK,78%
same,remaining binding at 2 µM,FGFR3,100%
same,remaining binding at 2 µM,ACVR2A,89%
same,remaining binding at 2 µM,SLK,92%
same,remaining binding at 2 µM,LIMK1,95%
same,remaining binding at 2 µM,PRKD1,90%
same,remaining binding at 2 µM,EGFR(S752-1759del),99%
same,remaining binding at 2 µM,MTOR,79%
same,remaining binding at 2 µM,MYLK4,98%
same,Potency in inhibition of PSA production relative to Senexin B,LNCaP-C4-2 cells,~3 fold
same,remaining binding at 2 µM,CDK5,100%
same,remaining binding at 2 µM,RIOK1,94%
same,remaining binding at 2 µM,NEK11,60%
same,remaining binding at 2 µM,[3],63%
same,remaining binding at 2 µM,NEK5,97%
same,remaining binding at 2 µM,KIT(A829P),82%
same,remaining binding at 2 µM,STK16,71%
same,remaining binding at 2 µM,PLK4,90%
same,remaining binding at 2 µM,PKN2,89%
same,Metabolic conversion rate in cultured hepatocytes,[4],greatly decreased relative to Senexin B
